Earlier results, collected in patent US20140370105A1, “TREATMENT OF INFLAMMATORY BOWEL DISEASE WITH 6-MERCAPTOPURINE” (Teva Pharmaceutical Industries, Ltd., priority 2008, published 2014).

System: inflammatory bowel disease
Settings: conventional therapy

For `Sc1ncnc2nc[nH]c12` [6-MP, 6-mercaptopurine], the “time required to be effective / show effect” value (IBD / Crohn's disease patients) is listed as 3-4 months and the “time required to show any benefit” value (IBD patients) is listed as “at least 12 weeks”.
